Among the data in PubChem BioAssay AID493040 (Abbott Labs, 2011) are Ki values, retold here.

Test in all cases: PubChem AID 493040
In assay [1] the target is Cyclin-dependent kinase 2 (Homo sapiens) (UniProt P24941). The note with it: kinase panel binding, pKi; CDK2.
For assay [2], the target named is Rho-associated protein kinase 2 (Homo sapiens) (UniProt O75116). To be noted: kinase panel binding, pKi; ROCK2.
Assay [3] concerns the target Mitogen-activated protein kinase 14 (Homo sapiens) (UniProt Q16539). The note with it: kinase panel binding, pKi; MAPK14.
Assay [4] has as its target Serine/threonine-protein kinase Sgk2 (Homo sapiens) (UniProt Q9HBY8). The note with it: kinase panel binding, pKi; SGK.

SMILES strings stand for the structures. Active and inactive are the calls of the source. The rule behind the calls is not given here.

Mitogen-activated protein kinase 14 (Homo sapiens), sequence (Q16539 whole entry, looked up): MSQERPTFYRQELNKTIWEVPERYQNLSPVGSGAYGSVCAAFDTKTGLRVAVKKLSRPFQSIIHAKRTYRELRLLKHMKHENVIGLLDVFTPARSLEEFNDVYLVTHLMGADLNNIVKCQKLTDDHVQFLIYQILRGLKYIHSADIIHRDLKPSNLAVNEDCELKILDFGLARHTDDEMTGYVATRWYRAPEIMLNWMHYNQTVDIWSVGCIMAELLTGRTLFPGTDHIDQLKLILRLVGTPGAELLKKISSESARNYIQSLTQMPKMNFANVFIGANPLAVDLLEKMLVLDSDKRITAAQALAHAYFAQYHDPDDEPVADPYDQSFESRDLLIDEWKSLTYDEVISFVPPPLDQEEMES
Serine/threonine-protein kinase Sgk2 (Homo sapiens), sequence (Q9HBY8 whole entry, looked up): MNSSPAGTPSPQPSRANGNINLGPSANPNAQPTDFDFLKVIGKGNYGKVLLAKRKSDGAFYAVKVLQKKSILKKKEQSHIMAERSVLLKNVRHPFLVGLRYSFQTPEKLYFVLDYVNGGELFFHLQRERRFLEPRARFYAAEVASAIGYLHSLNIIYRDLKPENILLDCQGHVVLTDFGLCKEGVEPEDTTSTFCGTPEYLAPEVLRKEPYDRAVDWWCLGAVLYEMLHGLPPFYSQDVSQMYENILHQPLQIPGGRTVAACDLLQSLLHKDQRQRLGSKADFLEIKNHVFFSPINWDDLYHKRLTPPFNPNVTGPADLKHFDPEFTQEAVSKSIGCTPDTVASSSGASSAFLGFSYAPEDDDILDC
Rho-associated protein kinase 2 (Homo sapiens), sequence (O75116 whole entry, looked up): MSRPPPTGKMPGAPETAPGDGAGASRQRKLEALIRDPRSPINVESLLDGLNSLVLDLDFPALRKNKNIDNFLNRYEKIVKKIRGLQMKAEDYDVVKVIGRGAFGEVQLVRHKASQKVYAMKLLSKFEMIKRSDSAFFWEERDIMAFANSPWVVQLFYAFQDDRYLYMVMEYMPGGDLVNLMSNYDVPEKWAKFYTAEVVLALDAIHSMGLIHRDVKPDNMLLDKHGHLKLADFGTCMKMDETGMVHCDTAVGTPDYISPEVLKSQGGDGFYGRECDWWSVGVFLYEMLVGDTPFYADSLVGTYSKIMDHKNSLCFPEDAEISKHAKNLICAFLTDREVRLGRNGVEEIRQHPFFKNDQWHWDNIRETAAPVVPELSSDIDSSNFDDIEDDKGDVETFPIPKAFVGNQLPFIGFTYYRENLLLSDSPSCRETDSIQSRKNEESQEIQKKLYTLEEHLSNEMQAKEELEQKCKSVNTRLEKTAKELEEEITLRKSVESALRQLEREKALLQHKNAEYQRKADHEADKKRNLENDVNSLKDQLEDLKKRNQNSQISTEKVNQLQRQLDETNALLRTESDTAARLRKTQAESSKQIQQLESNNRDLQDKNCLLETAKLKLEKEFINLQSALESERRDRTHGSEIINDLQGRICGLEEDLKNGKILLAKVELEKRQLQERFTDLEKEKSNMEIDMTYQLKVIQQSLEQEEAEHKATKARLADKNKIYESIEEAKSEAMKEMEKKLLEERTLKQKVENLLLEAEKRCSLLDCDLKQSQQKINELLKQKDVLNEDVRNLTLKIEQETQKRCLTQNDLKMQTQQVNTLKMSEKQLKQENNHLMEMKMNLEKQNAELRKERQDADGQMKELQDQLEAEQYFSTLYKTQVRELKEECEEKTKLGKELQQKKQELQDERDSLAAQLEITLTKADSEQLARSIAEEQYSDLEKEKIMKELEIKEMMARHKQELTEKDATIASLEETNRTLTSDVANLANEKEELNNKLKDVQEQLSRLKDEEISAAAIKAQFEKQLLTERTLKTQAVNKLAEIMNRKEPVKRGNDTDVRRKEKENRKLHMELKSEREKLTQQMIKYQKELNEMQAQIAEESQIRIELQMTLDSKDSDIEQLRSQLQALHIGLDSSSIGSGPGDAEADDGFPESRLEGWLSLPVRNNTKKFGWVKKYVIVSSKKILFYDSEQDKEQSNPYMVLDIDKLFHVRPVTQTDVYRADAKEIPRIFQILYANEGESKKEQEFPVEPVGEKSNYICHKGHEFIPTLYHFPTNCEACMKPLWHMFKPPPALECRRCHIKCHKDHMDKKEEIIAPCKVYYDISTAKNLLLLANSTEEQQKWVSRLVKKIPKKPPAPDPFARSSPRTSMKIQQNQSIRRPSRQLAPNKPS

As to `COCCNc1cc(-c2c[nH]c3ncccc23)cc(Cl)n1`, the Ki (usually a dissociation constant, usually derived from enzyme kinetics or from competition with a known ligand) was 251 nM in assay [1] and 5.01 nM in assay [2]. On the same counts, the results for `O=c1cc(-c2ccncc2)nc(NCc2cc(F)cc(F)c2)[nH]1` are 794 nM and 794 nM. In the case of `O=C1Nc2ccccc2Nc2cc(-c3ccncc3F)ccc21`, the Ki is 398 nM in assay [1] and 126 nM in assay [2]. Take `O=C1CN=C(c2cccc(Cl)c2)c2c(sc3c2CCCC3)N1`: in assay [1], the Ki was 7940 nM.

Turning to `Nc1n[nH]c2ccc(-c3nnn(Cc4ccccc4)c3C3CC3)cc12`, the Ki in assay [1] is 79.4 nM; in assay [2], 20 nM. `Nc1n[nH]c2ccc(-c3cc(Cc4ccccc4)no3)cc12`: the Ki in assay [1] is 200 nM; in assay [2], 25.1 nM. `CCNC(=O)c1[nH]nc(-c2cc(Cl)c(O)cc2O)c1-c1ccc(OC)cc1`: the Ki was 6310 nM in assay [1] and 2510 nM in assay [2]. In the case of `CC(C)(C)c1cc(NC(=O)C(=O)c2cccc3ccccc23)n(-c2ccc(OCC(=O)NCCO)cc2)n1`, the Ki in assay [3] was 631 nM. In the case of `CCCn1c(=O)c2[nH]c(-c3cnn(Cc4cccc(C(F)(F)F)c4)c3)nc2n(CC)c1=O`, the Ki in assay [1] was 5010 nM. As for `CC(C)(CO)CCCNc1cc(-c2c[nH]c3ncccc23)cc(Cl)n1`, the results for the Ki in assay [1] and in assay [2] were 100 nM and 10 nM, respectively. For `O=C(Nc1ccc(CO)cc1)c1cnn2c(-c3ccccc3)ccnc12`, the Ki in assay [4] was > 10000 nM (inactive). With `COCC(C)Nc1cc(-c2c[nH]c3ncccc23)cc(Cl)n1` (stereo not given), the Ki in assay [1] is 158 nM; in assay [2], 7.94 nM. In the case of `CN(c1ccccc1-c1ccc2c(c1)Nc1ccccc1NC2=O)S(C)(=O)=O`, the Ki in assay [1] was 2000 nM.

With `CCCCNc1c(-c2ccc3[nH]ncc3c2)nc2ncccn12`, the Ki was 398 nM in assay [1] and 63.1 nM in assay [2]. `Nc1ccc2cc(NCCc3ccccc3)cc(Nc3ncccn3)c2n1`: the Ki in assay [3] is 2510 nM. Turning to `CCn1c(=C(C#N)C(=O)O)sc(=CNc2ccccc2)c1=O`, the Ki in assay [4] was 3980 nM.

Take `CCOC(=O)c1c(NC(=O)C2C(C)(C)C2(C)C)sc2cnccc12`: the inhibition constant (Ki) in assay [1] was 1000 nM. In the case of `CCOC(=O)c1cn(-c2ccc(O)cc2C)c2cc(-c3ccncc3)ccc2c1=O`, the values for the Ki in assay [1], in assay [2] and in assay [4] were 3980 nM, 31.6 nM and > 10000 nM (inactive), respectively. As for `O=S(=O)(Nc1ccccn1)c1ccc(N=Cc2c(O)[nH]c3ccc4ncsc4c23)cc1`, in assay [4], the Ki was 15.8 nM. On to `COc1cc2c(Oc3ccc4[nH]c(C)cc4c3F)ncnc2cc1OCCCN1CCCC1`, for which the Ki in assay [4] was > 10000 nM (inactive).

Take `NC(=O)c1ccc(-c2nc(-c3ccc4c(c3)OCO4)c(-c3ccccn3)[nH]2)cc1`: the Ki in assay [2] is > 3980 nM (inactive). As for `CS(=O)(=O)Nc1ccccc1-c1ccc2c(c1)Nc1ccccc1NC2=O`, in assay [1], the Ki is 6310 nM. On to `COc1ccc(C=C2SC(=Nc3ccccc3)NC2=O)cc1OC`, for which, in assay [4], the Ki is > 10000 nM (inactive). Consider `Cc1ccccc1-c1c(-c2ccc3n[nH]c(C)c3c2)nnn1Cc1ccccc1`, for which the Ki in assay [1] is 3.98 nM. For `NC(=O)c1ccc(-c2ccnc(N)n2)cc1N1CCCCC1`, the Ki in assay [1] is 1260 nM; in assay [2], 1580 nM. Turning to `CCOC(=O)c1c[nH]n2c(=O)cc(-c3ccncc3)nc12`, in assay [2], the Ki was 2000 nM. `Fc1cccc(-c2c[nH]c3ncccc23)c1`: the Ki was 1260 nM in assay [1] and 316 nM in assay [2]. On to `c1ccc(-c2ncc3ccccn23)cc1`, for which, in assay [3], the Ki was 50100 nM. For `NC(=O)c1ccccc1Nc1nc(Nc2ccccc2)ncc1C(F)(F)F`, the Ki in assay [2] was 501 nM. Turning to `O=[N+]([O-])c1cccc(-c2nnc3ccc(N4CCCCC4)nn23)c1`, the Ki is 631 nM in assay [1] and > 7940 nM (inactive) in assay [2]. As to `O=C1Nc2ccccc2Nc2cc(-c3ccncc3Cl)ccc21`, the Ki in assay [1] is 501 nM; in assay [2], 631 nM. `Cn1cc(-c2ccccc2)c2nc(-c3ccncc3)cc(=O)n21`: the Ki in assay [2] is 3160 nM. Turning to `Cc1ccc(Nc2nccc(Nc3ccccc3C(=O)O)n2)cc1F`, the Ki in assay [1] is 398 nM; in assay [2], > 7940 nM (inactive). For the compound `FC(F)(F)c1ccccc1CNc1nccc(-c2c[nH]c3ncccc23)n1`, the Ki in assay [1] is 5.01 nM.

`CCn1c(-c2nonc2N)nc2cnc(Oc3cccc(NC(=O)c4ccc(OCCN5CCOCC5)cc4)c3)cc21`: the Ki in assay [1] was 794 nM; in assay [4], 200 nM. Turning to `c1ccc(Cn2nnc(-c3ccc4[nH]ncc4c3)c2-c2ccccc2)cc1`, the Ki in assay [1] was 63.1 nM.

As for `OCCCCNc1cc(-c2c[nH]c3ncccc23)cc(Cl)n1`, the figures for the Ki in assay [1] and in assay [2] were 126 nM and 15.8 nM, respectively. In the case of `CC(C)(C)c1cc(NC(=O)c2cc3ccccc3s2)n(-c2ccc(OCC(=O)O)cc2)n1`, in assay [3], the Ki was 2510 nM. On to `OCCNc1cc(-c2c[nH]c3ncccc23)cc(Cl)n1`, for which the Ki in assay [1] is 316 nM; in assay [2] it was 20 nM. For the compound `CC(C)(O)CNc1cc(-c2c[nH]c3ncccc23)cc(Cl)n1`, the values for the Ki in assay [1] and in assay [2] were 251 nM and 15.8 nM, respectively. For the compound `CCN(CCN(C)C)C(=O)c1cccc(-n2nc(C(C)(C)C)cc2NC(=O)Nc2cccc3ccccc23)c1`, the Ki in assay [3] was 794 nM. Regarding `CN(Cc1ccccc1)c1cc(-c2c[nH]c3ncccc23)cc(Cl)n1`, the Ki in assay [1] is 31.6 nM; in assay [2], 20 nM. In the case of `Oc1cccc(-c2nc(N3CCOCC3)c3oc4ncccc4c3n2)c1`, the Ki in assay [4] is > 7940 nM (inactive).

For the compound `Fc1ccc2c(c1)-c1[nH]ncc1CS2`, the Ki in assay [1] was 20000 nM. For `Cc1cccc(CNc2cc(-c3c[nH]c4ncccc34)cc(Cl)n2)c1C`, the values for the Ki in assay [1] and in assay [2] were 200 nM and 31.6 nM, respectively.

As to `Cc1c(C#N)c2nc3ccccc3n2c(=O)c1=CO`, the Ki in assay [2] was > 7940 nM (inactive); in assay [4], > 10000 nM (inactive). As for `Cc1[nH]nc2ccc(-c3cncc(OCCN(C)S(C)(=O)=O)c3)cc12`, the Ki was 501 nM in assay [1] and 100 nM in assay [2]. As to `c1cnc2[nH]cc(-c3ccnc(NCC4CCCCC4)n3)c2c1`, the Ki in assay [1] is 3.98 nM; in assay [2], 6.31 nM. `O=c1cc(-c2cccc(F)c2)nc2c(-c3ccc(F)cc3)c[nH]n12`: the Ki in assay [2] was > 7940 nM (inactive). As to `c1ccc(Cn2cc(-c3ccc4[nH]nc(-c5ccccc5)c4c3)nn2)cc1`, the Ki in assay [1] was 100 nM; in assay [2] it was 63.1 nM. Turning to `NC(=O)c1ccc(Nc2ncnc3[nH]cc(-c4ccccc4)c23)cc1`, the Ki in assay [1] was 501 nM; in assay [2] it was 251 nM.

As to `O=C1N=c2ccc(Br)cc2=C1c1sc(=S)[nH]c1O`, the Ki in assay [4] was 2000 nM. Turning to `O=c1cc(-c2ccc(F)cc2)nc2c(-c3ccc(F)cc3)c[nH]n12`, the Ki in assay [2] was > 7940 nM (inactive). `Oc1ccc(-c2nc(-c3ccc(F)cc3)c(-c3ccncc3)[nH]2)cc1`: the figures for the Ki in assay [2] and in assay [4] were > 3980 nM (inactive) and > 6310 nM (inactive), respectively. With `CNCCOc1cncc(-c2ccc3n[nH]c(C)c3c2)c1`, the Ki was 501 nM in assay [1] and 20 nM in assay [2].

For `CN(C)c1cc(-c2ccncc2)cc2[nH]nc(N)c12`, the values for the Ki in assay [1] and in assay [2] were 631 nM and 79.4 nM, respectively. `COc1ccccc1C(=O)Nc1n[nH]c2ccc(-c3cn(Cc4ccccc4)nn3)cc12`: the inhibition constant Ki in assay [1] is 251 nM; in assay [2], > 7940 nM (inactive). For `Cc1[nH]nc2ccc(-c3cncc(OCCNS(C)(=O)=O)c3)cc12`, in that order: 316 nM and 158 nM. For `NC(=O)c1ccc2c(ccn2-c2cccc(Cl)c2)c1`, in assay [2], the Ki was 2510 nM.

As for `O=C(NCc1ccccc1)c1c[nH]n2c(=O)cc(-c3ccncc3)nc12`, the Ki is 158 nM in assay [1] and > 7940 nM (inactive) in assay [2]. On to `NC1CCCCC1Nc1nccc(Nc2ccccc2C(=O)O)n1` (stereo not given), for which the Ki in assay [2] was > 7940 nM (inactive). As for `CC(C)(C)Oc1cc(-c2ccncc2)cc2[nH]nc(N)c12`, the Ki is 126 nM in assay [1] and 50.1 nM in assay [2]. Consider `Cc1cc(=O)n2[nH]cc(C(=O)NCc3ccccc3)c2n1`, for which the Ki in assay [2] was 2510 nM. With `NC(=O)c1ccc(-c2ccncc2)cc1NCc1cccc(F)c1`, the Ki is 3160 nM in assay [1] and 5010 nM in assay [2].

Take `Cc1sc2[nH]c(=O)n3nc(-c4ccncc4)nc3c2c1C`: the Ki in assay [2] is 3980 nM.

With `O=C1Nc2ccccc2Nc2cc(-c3ccncc3)ccc21`, the Ki in assay [1] was 1000 nM; in assay [2], 316 nM.

As for `CCCCNc1cc(-c2c[nH]c3ncccc23)ncn1`, the Ki was 200 nM in assay [1] and 20 nM in assay [2]. `C=CCNc1cc(-c2c[nH]c3ncccc23)cc(Cl)n1`: the Ki is 100 nM in assay [1] and 12.6 nM in assay [2].

With `O=c1ncn2nc(Sc3ccc(F)cc3F)ccc2c1-c1c(Cl)cccc1Cl`, the Ki in assay [4] was > 7940 nM (inactive). As for `CCCCNc1cc(-c2ccncc2)cc2[nH]nc(N)c12`, the Ki is 200 nM in assay [1] and 63.1 nM in assay [2]. In the case of `O=C(Nc1ccccc1)Nc1nccs1`, in assay [1], the Ki is 20000 nM.

As for `CCCCCCCCCCCCOc1ccc(N=C(N)N)cc1N=C(N)N`, the Ki was 5010 nM in assay [1], 3160 nM in assay [2] and > 10000 nM (inactive) in assay [4]. Take `Cc1cccc(CNc2cc(-c3c[nH]c4ncccc34)ncn2)c1`: the Ki was 39.8 nM in assay [1] and 12.6 nM in assay [2]. `c1ccc(Cn2cc(-c3ccc4[nH]nc(-c5cn(Cc6ccccc6)nn5)c4c3)nn2)cc1`: the figures for the Ki in assay [1] and in assay [2] were 5.01 nM and 126 nM, respectively.

For `NC(=O)c1cccc2[nH]c(-c3cccc(NCCN4CCCC4)n3)nc12`, in assay [4], the Ki was > 10000 nM (inactive).

For `CN(C)CCCOc1cc(-c2ccncc2)cc2[nH]nc(N)c12`, the Ki in assay [1] was 3160 nM; in assay [2], 251 nM.

For the compound `CCCCOc1cc(-c2ccncc2)cc2[nH]nc(N)c12`, the Ki in assay [1] is 1000 nM; in assay [2] it was 126 nM.

Regarding `O=C(O)c1ccccc1Nc1ccnc(NCc2cccc(O)c2)n1`, the Ki in assay [2] is > 7940 nM (inactive). Consider `COCCN(CCOC)c1cc(-c2c[nH]c3ncccc23)cc(Cl)n1`, for which the Ki is 2000 nM in assay [1] and 39.8 nM in assay [2].
